Measurements taken from US20070259928A1, “Medicinal Composition for Treating Diabetes” (priority 2004, published 2007).

Assays:
[1] = tested on: Zucker diabetic fatty (ZDF) rats; experiment: Test Example 1: glycosylated hemoglobin ratio after 6 weeks of repeated, timed administration of Compound A and metformin; type: in vivo, rat; details: for glycosylated hemoglobin ratio vs control group: 100-150 mg/kg each once daily
Protocol: Eleven-week old Zucker diabetic fatty (ZDF) rats, that spontaneously developed diabetes mellitus, were grouped into 3 groups (7 rats per group). Feeding was limited to from 17:00 to 9:00, and Compound A and metformin (purchased from Sigma Chemical Co., Ltd.) were repeatedly administered for 6 weeks. Doses of Compound A and metformin were 100-150 mg/kg each once daily, and administered at 9:00 AM (9:00) or 4:00 PM (16:00). In the group administered Compound A at 9:00 AM, metformin was administered at 4:00 PM (AM-Compound A/PM-metformin administered group; Group A), and in the group administered metformin at 9:00 AM, Compound-A was administered at 4:00 PM (AM-metformin/PM-Compound A administered group; Group B). The dose of each compound per day in both groups was fixed at the same. Vehicle alone was administered to the remaining group (control group) twice a day. After repeated administration of the compounds for 6 weeks, blood sample was collected from the tail vein of each rat, and ratios of glycosylated hemoglobin levels in erythrocytes were determined by DCA2000 manufactured by Bayer Medical Ltd. Glycosylated hemoglobin is non-enzymatically formed by binding of glucose to hemoglobin, and the ratio of glycosylated hemoglobin is increased by sustained hyperglycemia. Thus the glycosylated hemoglobin ratio is widely used as an indicator of a long-term therapy (or control of blood glucose levels) in patients with diabetes mellitus. The average and standard error of the glycosylated hemoglobin ratio determined in each group were calculated and are shown in FIG. 1.

Goto-Kakizaki (GK) rats = experiment: Test Example 2: blood glucose lowering rate 4 hours after oral Compound A in fasted and non-fasted rats; type: in vivo, rat; details: 30 mg/kg oral
Protocol: Thirty-six-week old Goto-Kakizaki (GK) rats (purchased from Charles River Japan, Inc.), that spontaneously developed diabetes mellitus, were grouped into 4 groups such as “non-fasting control group”, “non-fasting and Compound A administered group”, “fasting control group”, and “fasting and Compound A administered group” (6 rats per group).
In Compound A administered groups, Compound A (30 mg/kg) was orally administered, and vehicle alone was administered to two control groups. In addition, rats in two fasting groups were fasted from one day before oral administration of Compound A, and rats in two non-fasting groups were fasted immediately after Compound A was administered [the rats were allowed to take food pellets (FR2, manufactured by Funabashi Farm Co., Ltd.) ad libitum until fasting was started]. Blood sample was collected from the tail vein immediately before and 4 hours after oral administration of Compound A. Blood glucose level was determined by electric potential measurement method based on glucose oxidase immobilized electrode using Glucoloader GXT (A&T Corp.). The blood glucose lowering rate (%) at 4 hours after administration of Compound A against the blood glucose level before administration was calculated in individual rats according to the following equation, and the average blood glucose lowering rate and its standard error in each group are summarized in FIG. 2. [Blood glucose lowering rate(%)]=100×([…])/[blood glucose level before administration]

## CCOC(=O)[C@H](C)NP(=O)(N[C@@H](C)C(=O)OCC)c1ccc(-c2nc(N)sc2CC(C)C)o1 [Compound A, 2-amino-5-isobutyl-4-{2-[5-(N,N′-bis((S)-1-ethoxycarbonyl)ethyl)phosphonamido]furanyl}thiazole]
[1]; AM-metformin/PM-Compound A compared with AM-Compound A/PM-metformin, same daily doses, p=0.0330, Tukey test
  glycosylated hemoglobin ratio, Group B vs Group A: improved diabetes mellitus more remarkably
[1]; Group A: Compound A at 9:00 AM, metformin at 4:00 PM, p=0.0749, Tukey test
  glycosylated hemoglobin ratio vs control group: not significantly different from that in the control group
[1]; Group B: metformin at 9:00 AM, Compound A at 4:00 PM, p=0.0002, Tukey test
  glycosylated hemoglobin ratio vs control group: significantly lower than that in the control group
Goto-Kakizaki (GK) rats; GK rats fasted from one day before dosing, p=0.0236, t-test
  blood glucose lowering rate at 4 hours after administration vs corresponding control group: significantly reduced
Goto-Kakizaki (GK) rats; GK rats, both groups given Compound A, p=0.0158, t-test
  blood glucose lowering rate at 4 hours, fasting group vs non-fasting group: significantly lower
Goto-Kakizaki (GK) rats; non-fasting GK rats, p=0.0196, t-test
  blood glucose lowering rate at 4 hours after administration vs corresponding control group: significantly reduced
